In the oligonucleotide strings, read from the 5' end, every base follows the letter of its sugar. An asterisk marks phosphorothioate; unmarked linkages are phosphodiester. Other units and linkages are bracketed, terminal groups are in braces. A string of capitals states the bases alone. d = 2'-deoxy (DNA); m = 2'-O-methyl
Target: T1, human TLR7 (Homo sapiens, UniProt Q9NYK1)
T1 construct: HA; host or cells: 293XL-hTLR7-HA (HEK293)
T1 sequence (Q9NYK1 27-1049): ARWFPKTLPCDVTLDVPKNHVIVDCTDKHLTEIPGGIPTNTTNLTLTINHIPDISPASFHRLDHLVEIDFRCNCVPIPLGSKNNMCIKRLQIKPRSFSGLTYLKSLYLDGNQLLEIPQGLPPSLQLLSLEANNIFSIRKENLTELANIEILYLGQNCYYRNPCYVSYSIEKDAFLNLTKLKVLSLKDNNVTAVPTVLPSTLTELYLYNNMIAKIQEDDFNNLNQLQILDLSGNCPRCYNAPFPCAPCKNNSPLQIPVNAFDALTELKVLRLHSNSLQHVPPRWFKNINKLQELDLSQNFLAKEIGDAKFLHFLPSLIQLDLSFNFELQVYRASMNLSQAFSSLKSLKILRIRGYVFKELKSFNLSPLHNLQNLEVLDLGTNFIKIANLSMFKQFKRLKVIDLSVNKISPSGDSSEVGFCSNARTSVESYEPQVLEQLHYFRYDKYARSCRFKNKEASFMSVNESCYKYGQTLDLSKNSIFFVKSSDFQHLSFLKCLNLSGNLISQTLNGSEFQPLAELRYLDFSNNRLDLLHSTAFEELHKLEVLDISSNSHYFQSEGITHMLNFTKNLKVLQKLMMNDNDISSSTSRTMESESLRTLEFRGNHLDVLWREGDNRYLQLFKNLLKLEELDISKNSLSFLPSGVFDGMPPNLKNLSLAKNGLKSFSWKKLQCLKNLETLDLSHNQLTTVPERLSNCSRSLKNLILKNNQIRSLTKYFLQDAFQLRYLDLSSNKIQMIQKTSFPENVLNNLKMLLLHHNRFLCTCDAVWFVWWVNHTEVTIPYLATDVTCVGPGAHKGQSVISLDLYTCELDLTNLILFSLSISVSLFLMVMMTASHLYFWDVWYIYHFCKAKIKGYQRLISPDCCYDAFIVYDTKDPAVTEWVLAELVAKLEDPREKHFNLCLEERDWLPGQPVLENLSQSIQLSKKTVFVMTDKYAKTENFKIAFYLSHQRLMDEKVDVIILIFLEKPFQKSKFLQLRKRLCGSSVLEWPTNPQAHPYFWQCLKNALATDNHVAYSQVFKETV
Test: HEK-TLR7 NF-κB-luciferase reporter, R848 stimulation
Type: cell-based
Details: for TLR7 100 nM (averaged NF-κB-Luciferase level relative to R848 condition): ASO 100 nM; for TLR7 100 nM (averaged NF-κB-Luciferase level relative to R848 condition) / TLR7 500 nM (averaged NF-κB-Luciferase level relative to R848 condition): relative to R848 only, given as fraction; for TLR7 500 nM (averaged NF-κB-Luciferase level relative to R848 condition): ASO 500 nM; for TLR7-100 nM: averaged NF-κB-Luciferase relative to R848: HEK-TLR7, 100 nM ASO, percentage of R848 without ASO (Alharbi et al., 2020)

| Substance | TLR7 100 nM (averaged NF-κB-Luciferase level relative to R848 condition) | TLR7 500 nM (averaged NF-κB-Luciferase level relative to R848 condition) | TLR7-100 nM: averaged NF-κB-Luciferase relative to R848 |
| --- | --- | --- | --- |
| CGGCCTCGGAAGCTCT (antisense; LNA-modified, pattern not given here) [MB21D1-168 LNA V1] | 0.594 | 0.139 |  |
| TGACAAAGATTCACTG (antisense; LNA-modified, pattern not given here) [HPRT LNA-1353 KL] | 1.040 | 0.430 |  |
| CTTGAAGCATCGTATC (antisense; LNA-modified, pattern not given here) [CTNN2B-3648 LNA KL] | 0.363 | 0.044 |  |
| ATGTGATGGCCTCCCA (antisense; LNA-modified, pattern not given here) [HPRT LNA-335 V1] | 0.499 | 0.128 |  |
| GTCTCTGGAGCTTCCT (antisense; LNA-modified, pattern not given here) [CAMSAP1-2456 LNA V1] | 0.477 | 0.084 |  |
| GATGGCCTCCCATCTC (antisense; LNA-modified, pattern not given here) [HPRT LNA-331 V1] | 0.558 | 0.119 |  |
| TCCGCCCAAAGGGAAC (antisense; LNA-modified, pattern not given here) [HPRT LNA-1027 KL] | 0.860 | 0.543 |  |
| GTGATGGCCTCCCATC (antisense; LNA-modified, pattern not given here) [HPRT LNA-333 V1] | 0.665 | 0.139 |  |
| GTCCTTGCACGTGGCT (antisense; LNA-modified, pattern not given here) [EGFR-1015 LNA V1] | 0.471 | 0.251 |  |
| GGTCATTACAATAGCT (antisense; LNA-modified, pattern not given here) [HPRT LNA-475 KL] | 0.580 | 0.049 |  |
| CATCCACCACGTCGTC (antisense; LNA-modified, pattern not given here) [EGFR-3266 LNA V1] | 0.741 | 0.353 |  |
| TCCACAATCAAGACAT (antisense; LNA-modified, pattern not given here) [HPRT LNA-551 KL] | 0.863 | 0.533 |  |
| TCTTGGCTTCGTGGAG (antisense; LNA-modified, pattern not given here) [MB21D1-521 LNA V1] | 1.033 | 0.288 |  |
| ACCACGTCTGCTCTAA (antisense; LNA-modified, pattern not given here) [CAMSAP1-1635 LNA KL] | 1.078 | 0.532 |  |
| CCACATCCTGTGGCTC (antisense; LNA-modified, pattern not given here) [CAMSAP1-2906 LNA V1] | 0.789 | 0.363 |  |
| CTGCAGCTTCCTTGTC (antisense; LNA-modified, pattern not given here) [CTNN2B-2136 LNA V1] | 0.467 | 0.053 |  |

| Substance | TLR7 100 nM (averaged NF-κB-Luciferase level relative to R848 condition) | TLR7 500 nM (averaged NF-κB-Luciferase level relative to R848 condition) | TLR7-100 nM: averaged NF-κB-Luciferase relative to R848 |
| --- | --- | --- | --- |
| GTGATCTTGACATGCT (antisense; LNA-modified, pattern not given here) [EGFR-2790 LNA KL] | 0.438 | 0.060 |  |
| ACGTTCAGTCCTGTCC (antisense; LNA-modified, pattern not given here) [HPRT LNA-294 V1] | 0.601 | 0.136 |  |
| AATCCAACAAAGTCTG (antisense; LNA-modified, pattern not given here) [HPRT LNA-692 KL] | 0.727 | 0.433 |  |
| GAGGTCTTGGCTTCGT (antisense; LNA-modified, pattern not given here) [MB21D1-525 LNA V1] | 0.793 | 0.067 |  |
| GGAGGTCTTGGCTTCG (antisense; LNA-modified, pattern not given here) [MB21D1-526 LNA V1] | 0.503 | 0.119 |  |
| CCTCCCATCTCCTTCA (antisense; LNA-modified, pattern not given here) [HPRT LNA-326 V1] | 0.758 | 0.843 |  |
| mC*mA*mG*mU*mG*T*T*T*T*T*A*A*T*T*T*mU*mG*mU*mA*mG (mC*mA*mG*mU*mG*dT*dT*dT*dT*dT*dA*dA*dT*dT*dT*mU*mG*mU*mA*mG; antisense) [[CDKN2B-AS1]613] |  |  | 62.68% |
| CCAACACTTCGTGGGG (antisense; LNA-modified, pattern not given here) [HPRT LNA-668 V1] | 0.808 | 0.446 |  |
| TGCTCCTCGGTCTCCC (antisense; LNA-modified, pattern not given here) [CAMSAP1-1850 LNA V1] | 0.751 | 0.595 |  |
| TCCATACCCAAGGCAT (antisense; LNA-modified, pattern not given here) [CTNN2B-2446 LNA V1] | 1.056 | 0.494 |  |
| ATGGCCTCCCATCTCC (antisense; LNA-modified, pattern not given here) [HPRT LNA-330 V1] | 0.550 | 0.117 |  |
| TCGTGGGGTCCTTTTC (antisense; LNA-modified, pattern not given here) [HPRT LNA-660 V1] | 0.540 | 0.318 |  |
| AGATTTCAGAGCAGCT (antisense; LNA-modified, pattern not given here) [EGFR-4885 LNA KL] | 0.438 | 0.021 |  |
| mC*mA*mG*mU*mC*T*C*C*A*T*G*T*C*C*C*mA*mG*mG*mC*mC (mC*mA*mG*mU*mC*dT*dC*dC*dA*dT*dG*dT*dC*dC*dC*mA*mG*mG*mC*mC; antisense) [[CDKN2B-AS1]2233] |  |  | 47.75% |
| mA*mU*mU*mU*mC*C*A*C*A*T*G*C*C*C*A*mG*mU*mG*mU*mU (AUUUCCACATGCCCAGUGUU; antisense; sugars from the 5' end m5 d10 m5, all phosphorothioate, methylation of C not given here) [[CDKN2B-AS1]626] |  |  | 32.05% |
